20 molecules from patent publication US11479546B2, “Antimalarial hexahydropyrimidine analogues” (UCB Biopharma SRL, priority 2018, dated 2022) can be followed below.

For one assay, the system named is Plasmodium falciparum 3D7. The assay is described as follows: P. falciparum 3D7 asexual blood stage assay, Assay Procedure Version 2 (SYBR green readout). It counts as cell-based. The conditions noted are these: Plasmodium falciparum, 3D7, Erythrocyte, 72 h, Version 2 of the assay procedure (asterisk *); 72 h incubation in infected erythrocytes; 50,000 nM to 15 nM. As for the experimental part:
Asexual Blood Stage Assay
The assay used to measure the effect of test compounds on a bloodstream stage of Plasmodium falciparum 3D7 strain employs SYBR green as the readout. This is a dye that binds to double stranded deoxyribonucleic acid (DNA) with a resulting increase in fluorescence, allowing detection of P. falciparum DNA in infected erythrocytes, and thereby providing a measure of parasite growth and propagation.
P. falciparum Culture Maintenance
Erythrocytes (A+blood) were prepared for both parasite culture and assay by washing 4 times with incomplete media (15.9 g RPMI 1640 (25 mM HEPES, L-glutamine), 1 g NaHCO3, 2 g glucose, 400 μL gentacin (500 mg/mL), 2 mL hypoxanthine solution (13.6 g/L in 0.1M NaOH pH 7.3) in 1 litre of media). The cells were centrifuged at 1800 g for 5 minutes, before decanting the supernatant and re-suspending in fresh incomplete media. On the final wash, the cells were re-suspended in complete media (incomplete media with 5 g/L AlbumaxII), and centrifuged at 1800 g for 3 minutes. This cell sediment was treated as 100% haematocrit.
P. falciparum 3D7 was cultured in erythrocytes at 5% haematocrit in complete media at 37° C. (1% O2, 3% CO2, balance N2). Cultures were split on a weekly basis to achieve a 1% parasitaemia in erythrocites at 5% haematocrit in fresh media. Culture media is replaced by fresh media every other day (2 times during the week).
[formula] where A=% inhibition at bottom; B=% inhibition at top; C=EC50; D=slope; x=inhibitor concentration; and y=% inhibition. […] Assay Procedure—Version 2
On day 1, test compounds were added to assay plates using Echo dispensing technology ([…] and 20 points titration). 50 nL of each compound dilution was added to 50 μL of culture (5% haematocrit, 0.5% parasitaemia) and incubated for 72 h at 37° C. (1% O2, 3% CO2, balance N2). Final concentrations of test compounds ranged from 50,000 nM to 15 nM, in […].
On day 4, 10 μL SYBR green (Invitrogen S7563 supplied as 10,000× concentrate in DMSO) pre-diluted to 3× concentrate with Lysis buffer (20 mM Tris pH 7.9, 5% EDTA, 0.16% w/v, 1.6% TX100 v/v) was added to the cultures and incubated in the dark, overnight, at room temperature.
On day 5, fluorescent signal was measured using a BioTek plate reader (excitation 485 nm, emission 528 nm). All data were processed using IDBS ActivityBase. Raw data were converted into percent inhibition through linear regression by setting the high inhibition control (mefloquine) as 100% and the no inhibition control (DMSO) as 0%. Quality control criteria for passing plates were as follows: Z′>0.5, S:B>3, % CV(no inhibition control)<15. The formula used to calculate Z′ is:
[formula] where μ denotes the mean; σ denotes the standard deviation; p denotes the positive control; and n denotes the negative control.
All EC50 curve fitting was undertaken using the following bi-phasic two site dose response using XLfit model 300 (IDBS):
[formula] where A=100 minus the top of the upper curve 1 and the bottom of lower curve; B=Hill slope; log(C)=IC50 concentration at lower site; log(D)=IC50 concentration at upper site; x=inhibitor concentration; and y=% inhibition.
The term IC50 denotes the concentration that gives 50% inhibition. Low values mean inhibition by little substance, high ones a need for much substance. Consider `C[C@@H]1C[C@H](N2C(=N)N[C@](C)(c3cccc(Nc4ccc(OCC(F)(F)F)nc4)c3Cl)CC2=O)CCO1` (relative stereo) [Example 201, (6S)-6-(2-Chloro-3-{[6-(2,2,2-trifluoroethoxy)pyridin-3-yl]-amino}phenyl)-2-imino-6-methyl-3-[(2R*,4R*)-2-methyl-tetrahydropyran-4-yl]-hexahydropyrimidin-4-one], for which half-maximal inhibition (IC50) was put at 102 nM.
The molecule `C[C@@]1(c2cccc(Nc3ccccc3N=S(C)(C)=O)c2Cl)CC(=O)N(C2CCOCC2)C(=N)N1` [Example 109, (6S)-6-[2-Chloro-3-(2-{[dimethyl(oxo)-λ^6-sulfanylidene]amino}anilino)-phenyl]-2-imino-6-methyl-3-(tetrahydropyran-4-yl)-hexahydropyrimidin-4-one] had an IC50 of 814 nM.
Molecule `C[C@@]1(c2cccc(Nc3cccc(-c4ccno4)c3)c2Cl)CC(=O)N(C2CCOCC2)C(=N)N1` [Example 61, (6S)-6-{2-Chloro-3-[3-(isoxazol-5-yl)anilino]phenyl}-2-imino-6-methyl-3-(tetrahydro-pyran-4-yl)hexahydropyrimidin-4-one] registered an IC50 of 753 nM.
As for `C[C@@]1(c2cccc(Nc3ccnc(C(F)(F)F)c3)c2Cl)CC(=O)N([C@H]2C[C@@](C)(O)C2)C(=N)N1` [Example 131, (6S)-6-(2-Chloro-3-{[2-(trifluoromethyl)pyridin-4-yl]amino}phenyl)-3-(3-hydroxy-3-methylcyclobutyl)-2-imino-6-methylhexahydropyrimidin-4-one], the midpoint of inhibition, the IC50, lay at 18300 nM.
For the molecule `C[C@@]1(c2cccc(Nc3ccc(OC(F)(F)F)nc3)c2Cl)CC(=O)N(C2CCOCC2)C(=N)N1` [Example 45, (6S)-6-(2-Chloro-3-{[6-(trifluoromethoxy)pyridin-3-yl]-amino}phenyl)-2-imino-6-methyl-3-(tetrahydropyran-4-yl)hexahydropyrimidin-4-one], the IC50 was determined as 305 nM.
On the same count and under the same terms, in the case of `Cc1ccc(Nc2cccc([C@]3(C)CC(=O)N([C@@H]4CCO[C@@H](C)C4)C(=N)N3)c2Cl)cn1` (single isomer, unassigned; peak 2) [Example 196, (6S)-6-{2-Chloro-3-[(6-methyl-pyridin-3-yl)amino]phenyl}-2-imino-6-methyl-3-[(2S*,4R*)-2-methyltetrahydropyran-4-yl]-hexahydropyrimidin-4-one (Peak 2)] it was 552 nM.
On to `C[C@@]1(c2cccc(Nc3ccc(F)cc3)c2Cl)CC(=O)N(C2CC(O)(C(F)(F)F)C2)C(=N)N1` [Example 179, (6S)-6-[2-Chloro-3-(4-fluoro-anilino)phenyl]-3-[3-hydroxy-3-(trifluoromethyl)cyclobutyl]-2-imino-6-methyl-hexahydro-pyrimidin-4-one (cis isomer)], for which it took 381 nM to reach half-maximal inhibition (IC50).
The same measure, in the same setting: next, `C[C@@]1(c2cccc(Nc3ccc(C(F)(F)F)nc3)c2Cl)CC(=O)N([C@H]2C[C@@](C)(O)C2)C(=N)N1` [Example 124, (6S)-6-(2-Chloro-3-{[6-(trifluoromethyl)pyridin-3-yl]-amino}phenyl)-3-(3-hydroxy-3-methylcyclobutyl)-2-imino-6-methylhexahydropyrimidin-4-one]: 509 nM; `C[C@@]1(c2cccc(Nc3ccc(C#N)cc3OC(F)F)c2Cl)CC(=O)N([C@H]2C[C@@](C)(O)C2)C(=N)N1` [Example 133, 4-{2-Chloro-3-[(4S)-1-(3-hydroxy-3-methylcyclobutyl)-2-imino-4-methyl-6-oxo-hexahydropyrimidin-4-yl]-anilino}-3-(difluoromethoxy)-benzonitrile]: 562 nM.
Same read-out and setting: next, `C[C@@]1(c2cccc(Nc3ccc(OC(F)F)nc3)c2Cl)CC(=O)N([C@@H]2C[C@H]3CC[C@@H](C2)O3)C(=N)N1` (mixture of isomers) [Example 156, (6S)-6-(2-Chloro-3-{[6-(difluoromethoxy)pyridin-3-yl]-amino}phenyl)-2-imino-6-methyl-3-[(1SR,5RS)-8-oxa-bicyclo[3.2.1]octan-3-yl]-hexahydropyrimidin-4-one]: 2980 nM; `Cc1ncc(Nc2cccc([C@]3(C)CC(=O)N(C4CCOCC4)C(=N)N3)c2Cl)c2ccccc12` [Example 90, (6S)-6-{2-Chloro-3-[(1-methyl-isoquinolin-4-yl)amino]phenyl}-2-imino-6-methyl-3-(tetrahydro-pyran-4-yl)hexahydropyrimidin-4-one]: 3110 nM; `C[C@@]1(c2cccc(Nc3cccc(N4CCCC4=O)c3)c2Cl)CC(=O)N(C2CCOCC2)C(=N)N1` [Example 79, (6S)-6-{2-Chloro-3-[3-(2-oxo-pyrrolidin-1-yl)anilino]phenyl}-2-imino-6-methyl-3-(tetrahydro-pyran-4-yl)hexahydropyrimidin-4-one]: 401 nM.
Same read-out and setting: next, `C[C@@]1(c2cccc(Nc3ccccc3OC(F)(F)F)c2Cl)CC(=O)N(C2CCOCC2)C(=N)N1` [Example 53, (6S)-6-{2-Chloro-3-[2-(trifluoromethoxy)anilino]-phenyl}-2-imino-6-methyl-3-(tetrahydropyran-4-yl)-hexahydropyrimidin-4-one]: 212 nM; `C[C@@]1(c2cccc(Nc3ccc(C4CCC4)nc3)c2Cl)CC(=O)N(C2CCOCC2)C(=N)N1` [Example 106, (6S)-6-{2-Chloro-3-[(6-cyclo-butylpyridin-3-yl)amino]-phenyl}-2-imino-6-methyl-3-(tetrahydropyran-4-yl)-hexahydropyrimidin-4-one]: 374 nM.
`COc1ncc(Nc2cccc([C@]3(C)CC(=O)N(C4CCOCC4)C(=N)N3)c2Cl)cc1F` [Example 49, (6S)-6-{2-Chloro-3-[(5-fluoro-6-methoxypyridin-3-yl)amino]-phenyl}-2-imino-6-methyl-3-(tetrahydropyran-4-yl)-hexahydropyrimidin-4-one]: the IC50 was found to be 468 nM.
On the same count and under the same terms, in the case of `CCc1ccc(Nc2cccc([C@]3(C)CC(=O)N(C4CCOCC4)C(=N)N3)c2Cl)cn1` [Example 111, (6S)-6-{2-Chloro-3-[(6-ethyl-pyridin-3-yl)amino]phenyl}-2-imino-6-methyl-3-(tetrahydro-pyran-4-yl)hexahydropyrimidin-4-one] it was 248 nM; in that of `CC1(C)CC(N2C(=N)N[C@](C)(c3cccc(Nc4ccc(C(C)(C)C)nc4)c3Cl)CC2=O)CCO1` (single isomer, unassigned) [Example 148, (6S)-6-{3-[(6-tert-Butylpyridin-3-yl)amino]-2-chlorophenyl}-3-[(4S*)-2,2-dimethyltetrahydro-pyran-4-yl]-2-imino-6-methyl-hexahydropyrimidin-4-one], 368 nM; in that of `C[C@@]1(c2cccc(Nc3cnc(C(F)(F)F)nc3)c2Cl)CC(=O)N(C2CCOCC2)C(=N)N1` [Example 52, (6S)-6-(2-Chloro-3-{[2-(trifluoromethyl)pyrimidin-5-yl]amino}phenyl)-2-imino-6-methyl-3-(tetrahydropyran-4-yl)hexahydropyrimidin-4-one], 680 nM.

The assay is the same for the next values; noted with them: Version 2 of the assay procedure (asterisk *); 72 h incubation in infected erythrocytes; 50,000 nM to 15 nM.
In turn, `CC1(C)CC(N2C(=N)N[C@](C)(c3cccc(Nc4ccc(C5CC5)nc4)c3Cl)CC2=O)CCO1` (single isomer, unassigned) [Example 147, (6S)-6-{2-Chloro-3-[(6-cyclo-propylpyridin-3-yl)amino]-phenyl}-3-[(4S*)-2,2-dimethyl-tetrahydropyran-4-yl]-2-imino-6-methylhexahydropyrimidin-4-one] yielded an IC50 of 287 nM.
`CC1(C)CC(N2C(=N)N[C@](C)(c3cccc(Nc4ccc(OC(F)F)nc4)c3Cl)CC2=O)CCO1` (single isomer, unassigned) [Example 143, (6S)-6-(2-Chloro-3-{[6-(difluoromethoxy)pyridin-3-yl]-amino}phenyl)-3-[(4R*)-2,2-dimethyltetrahydropyran-4-yl]-2-imino-6-methylhexahydro-pyrimidin-4-one] returned an IC50 of 996 nM.
